Measured values reported in patent publication US20240374545A1, “DIAGNOSIS OF IMMUNITY REDUCTION THROUGH INTESTINAL MICROFLORA ANALYSIS OF STOMACH CANCER PATIENTS, AND THERAGNOSTIC COMPOSITION USING INTESTINAL MICROFLORA” (THE CATHOLIC UNIVERSITY OF KOREA INDUSTRY-ACADEMIC …, priority 2022, published 2024).

Legend:
[1] = system: AGS cell line, a stomach cancer cell line; assay: Apoptosis of AGS stomach cancer cell line by Annexin/PI flow cytometry (SD217); format: cell-based; settings: 48 hours
Method: It was determined whether SD217, a novel compound of the present invention, may specifically kill stomach cancer cells. Specifically, 2×10^5 of a AGS cell line, a stomach cancer cell line, was inoculated into a 6-well plate and then treated with SD217, the novel compound of the present invention, at a concentration of 0.2 mM after overnight, and after 48 hours, stained with Annexin/PI, and then apoptotic cells were analyzed by flow cytometry. As a control group, a Vehicle group treated with the same amount of PBS was used. Thereafter, early apoptotic cells were confirmed, a ratio of late apoptotic/necrotic cells was confirmed, and thus death of the stomach cancer cell line was confirmed.
It was confirmed whether SD217, the novel compound of the present invention, induced early and late apoptosis in stomach cancer cell line. Specifically, 2×10^5 of a AGS cell line, a stomach cancer cell line, was inoculated into a 6-well plate and then treated with SD217, the novel compound of the present invention, at concentrations of 1, 5, 10, 20, and 50 mM after overnight, and after 48 hours, stained with Annexin/PI, and then apoptotic cells were analyzed by flow cytometry.

[2] = system: AGS cell line, a stomach cancer cell line; assay: Stomach cancer transplant animal model (AGS subcutaneous in NSG mice), tumor growth; format: in vivo; settings: NSG mice with AGS tumor, 50 mg/kg orally daily, compared to the Vehicle group (FIG. 3)
Method: It was confirmed whether SD217, the novel compound of the present invention, inhibited tumor growth. Specifically, a stomach cancer transplant animal model was fabricated by subcutaneously injecting 5×10^6 of the AGS cell line, a stomach cancer cell line, into 6-8-week-old immunodeficient mice (NSG). Thereafter, SD217 was orally administered daily at a concentration of 50 mg/kg. After AGS cell injection and SD217 administration, tumor size was measured three times weekly using calipers, and tumor volume was calculated by substituting the lengths in long axis and short axis of the tumor into Equation 1 below. As a control group, a Vehicle group injected with the same amount of PBS was used.

[3] = system: Programmed Death-Ligand 1 (PD-L1); assay: PD-L1 positive cells in AGS stomach cancer cell line by flow cytometry; format: cell-based; settings: AGS cells, 0.2, 0.5, and 1 mM, compared to the Vehicle group (FIG. 2)
Source text: It was intended to confirm the expression of a Programmed Death-Ligand 1 (PD-L1) protein, an immunity reduction marker of stomach cancer cells, by SD217, a novel compound of the present invention. The PD-L1 protein was a surface protein of stomach cancer cells, and the PD-L1 is a protein that evaded the immune responses of T cells by binding to programmed cell death-1 (PD-1), a surface protein of activated T cells. […] Specifically, in the same manner as in Example 1, AGS cells, a stomach cancer cell line, were treated with 0.2, 0.5, and 1 mM of SD217 and reacted. Thereafter, PD-L1 positive cells were analyzed by flow cytometry. As a control group, a Vehicle group treated with PBS was used, and as a positive control group, 1 mM Metformin was used.

[4] = AGS cells, 1, 5, 10, 20, and 50 mM, compared to the Vehicle group (FIG. 4)

N=C(N)NC(=N)Nc1ccc(F)cc1F [SD217, 1-(2,4-difluorophenyl) biguanide] was tested, and the apoptosis ([1]; AGS cells, 0.2 mM, Annexin/PI, compared to the Vehicle group (FIG. 1)) was “significantly increased”, the early apoptosis [1, 4] was “induced in a concentration-dependent manner” and the late apoptosis [1, 4] was “induced in a concentration-dependent manner”. The tumor growth [2] was “significantly inhibited”, the tumor volume [2] was “significantly reduced” and the “number of PD-L1 positive cells” value [3] was “significantly reduced”.
